Experimental data as given in PMC8765320, “Identification of a Proteasome-Targeting Arylsulfonamide with Potential for the Treatment of Chagas’ Disease” (Antimicrobial Agents and Chemotherapy, 2022).
Read-outs that look alike come from different tables or passages of the source.

Legend:
T. brucei BSF = experiment: T. brucei bloodstream form drug sensitivity assay; assay type: cell-based; conditions: Trypanosoma brucei, weighted mean, n ≥ 3, read-out: Mean compound 1 EC50 ± SD
Experimental: (§1) L. donovani promastigote ([35]), axenic amastigote ([25]), and T. brucei bloodstream form ([36]) drug sensitivity assays were carried out as previously described. HepG2 monolayers were washed twice in PBS, detached with 0.05% trypsin/EDTA, and then diluted with fully supplemented MEM growth medium. Cells were pelleted at 80 × g for 5 min and resuspended in fully supplemented growth medium. Cells were seeded into 96-well plates (5 × 10^4/well) and allowed to adhere prior to exposure to test compounds. Plates were incubated at 37°C in the presence of 5% CO2 for 72 h. After incubation, resazurin (20 μl of a 2.5-mg/ml^−1 stock solution) was added to each well, followed by incubation for a further 2 h prior to fluorescence being read as described above.

[1] = system: mitochondrial T. cruzi malic enzyme (mTcME); experiment: Thermal proteome profiling, mTcME; assay type: binding, Trypanosoma cruzi; conditions: lysate, compound at 10× EC50
Experimental: Aliquots of each lysate were then incubated at designated temperatures (33 to 69°C) and then, for each temperature, insoluble (denatured) proteins were removed. The resulting soluble protein samples were reduced, alkylated, and digested with trypsin prior to derivatization with tandem mass tags. Pooled peptides were fractionated by high-pressure liquid chromatography and analyzed by LC/MS-MS prior to identification and quantitation. The melting points of identified proteins were then established using the TPP software package. Full melt curves were established for 6,771 proteins, representing 39.4% coverage of the T. cruzi proteome.
T. cruzi (X10/7 strain) mid-log-phase epimastigotes (∼1 × 10^10) were harvested by centrifugation (1,912 × g, 15 min, 4°C) and washed with ice-cold PBS (1,912 × g, 5 min, 4°C); finally, the cell pellet was resuspended in 8 ml of ice-cold lysis buffer (1 mM EDTA, 1 mM dithiothreitol [DTT], 100 μM TLCK [Nα-p-tosyl-L-lysine chloromethyl ketone], and 1× Roche EDTA-free COmplete protease inhibitor cocktail in 50 mM potassium phosphate buffer [pH 7.4]). […] The resulting lysate was centrifuged (100,000 × g, 20 min, 4°C), the supernatant was collected, and the protein concentration was determined using a Bio-Rad protein assay. […]

HepG2 cells = experiment: HepG2 drug sensitivity assay (resazurin); assay type: cell-based; conditions: Homo sapiens; Mammalian HepG2; 72 h; weighted mean, n ≥ 3; read-out: Mean compound 1 EC50 ± SD
Experimental: as §1

T. cruzi epimastigotes = experiment: T. cruzi epimastigote drug sensitivity assay (resazurin); assay type: cell-based, Trypanosoma cruzi; conditions: for EC50: Trypanosoma cruzi
[2] = system: L. donovani promastigotes; experiment: L. donovani promastigote drug sensitivity assay; assay type: cell-based, Leishmania donovani; conditions: for EC50: Leishmania donovani
Experimental: as §1

## COc1ccc(NS(=O)(=O)c2cc(-c3cc(C)n[nH]3)ccc2C)cc1OC [Compound 1]
T. brucei BSF
  EC50: 0.3 ± 0.013 µM
[1]
  impact on the thermal stability of mTcME: no impact
HepG2 cells
  EC50: 23 ± 3 µM
T. cruzi epimastigotes; T. cruzi epimastigote, weighted mean, n ≥ 3, read-out: Mean compound 1 EC50 ± SD
  EC50: 3 ± 0.08 µM
T. cruzi epimastigotes; WT promastigotes (so in the source), Fig. 2B, one biological replicate, read-out: EC50
  EC50: 0.7 ± 0.01 µM
T. cruzi epimastigotes; cell line Wild type, read-out: Mean EC50 ± SD
  EC50: 3.3 ± 0.08 µM
T. cruzi epimastigotes; read-out: Mean EC50 ± SD, cell line ME OE (cTcME overexpressing)
  EC50: 5 ± 0.11 µM
T. cruzi epimastigotes; read-out: Mean EC50 ± SD, cell line RES I (compound 1-resistant, β5 D225N)
  EC50: 61 ± 1 µM
T. cruzi epimastigotes; read-out: Mean EC50 ± SD, cell line RES II (compound 1-resistant, β5 D225N)
  EC50: 54 ± 1 µM
T. cruzi epimastigotes; read-out: Mean EC50 ± SD, cell line RES III (compound 1-resistant, β5 D225N)
  EC50: 61 ± 0.7 µM
T. cruzi epimastigotes; read-out: Mean EC50 ± SD, cell line RES IV (compound 1-resistant, no proteasome mutation)
  EC50: 31 ± 2 µM
T. cruzi epimastigotes; read-out: Mean EC50 ± SD, cell line RES V (compound 1-resistant, β4 I27T)
  EC50: 70 ± 2 µM
T. cruzi epimastigotes; read-out: Mean EC50 ± SD, cell line Res I-β5 OE (β5 WT overexpressed in RES I)
  EC50: 13 ± 0.8 µM
T. cruzi epimastigotes; read-out: Mean EC50 ± SD, cell line β4 F24L/I29M (CRISPR-edited)
  EC50: > 50 µM
T. cruzi epimastigotes; read-out: Mean EC50 ± SD, cell line β5 D225N-OE (overexpressing mutated β5)
  EC50: 27 ± 1 µM
T. cruzi epimastigotes; resistant clone I, Fig. 2B, one biological replicate, read-out: EC50
  EC50: 23 ± 4 µM
T. cruzi epimastigotes; resistant clone II, Fig. 2B, one biological replicate, read-out: EC50
  EC50: 16 ± 0.3 µM
T. cruzi epimastigotes; resistant clone IV, Fig. 2B, one biological replicate, read-out: EC50
  EC50: 11 ± 1 µM
T. cruzi epimastigotes; resistant clone V, Fig. 2B, one biological replicate, read-out: EC50
  EC50: 14 ± 6 µM
T. cruzi epimastigotes; cell line ME OE
  fold change versus the WT: 1 fold
T. cruzi epimastigotes; cell line RES I
  fold change versus the WT: 18 fold
T. cruzi epimastigotes; cell line RES II
  fold change versus the WT: 16 fold
T. cruzi epimastigotes; cell line RES III
  fold change versus the WT: 18 fold
T. cruzi epimastigotes; cell line RES IV
  fold change versus the WT: 9 fold
T. cruzi epimastigotes; cell line RES V
  fold change versus the WT: 21 fold
T. cruzi epimastigotes; cell line Res I-β5 OE
  fold change versus the WT: 4 fold
T. cruzi epimastigotes; cell line β4 F24L/I29M
  fold change versus the WT: > 15 fold
T. cruzi epimastigotes; cell line β5 D225N-OE
  fold change versus the WT: 8 fold
T. cruzi epimastigotes; β4 F24L and I29M, at all of the concentrations tested
  susceptibility of CRISPR-edited epimastigotes: refractory
[2]; L. donovani cell line cLdME OE
  fold change versus WT: =
[2]; L. donovani compound 2-resistant line (G197S in β5 subunit)
  fold change versus WT: 260 fold
[2]; L. donovani promastigotes
  EC99 in promastigotes: 300 nM
[2]; read-out: Compound 1 EC50 values, L. donovani cell line Compound 2 RES III (G197S in β5 subunit)
  EC50: 26 ± 4 µM
[2]; L. donovani cell line Wild-type, read-out: Compound 1 EC50 values
  EC50: 0.1 ± 0.005 µM
[2]; L. donovani promastigote, weighted mean, n ≥ 3, read-out: Mean compound 1 EC50 ± SD
  EC50: 0.1 ± 0.005 µM
